Measurements: ChEMBL document CHEMBL3885861, “Open TG-GATES”

Species: Rattus norvegicus
Experiment: Open TG-GATES - Regimen: Daily Repeat
Assay type: toxicity, organism-based, Sprague-Dawley
Set-up: regimen Daily Repeat, gender Male, age 6 weeks
Conditions: in vivo, po, route gavage; for APTT / Bas / Eos / Fbg / Hb / Ht / Lym / MCH / MCHC / MCV / Mono / Neu / PT / Plat / RBC / Ret / WBC: tissue Blood; for KIDNEY_L / KIDNEY_R / KIDNEY_TOTAL: tissue Kidney; for LIVER: tissue Liver; for A/G / ALP / ALT / AST / BUN / CRE / Ca / Cl / DBIL / GLC / IP / K / LDH / Na / PL / RALB / TBIL / TC / TG / TP / gamma-GTP: tissue Plasma
[1] = 0 mg/kg, 72 h, dose level Control, time 3 day
[2] = 0 mg/kg, […], dose level Control, time 7 day
[3] = 0 mg/kg, […], dose level Control, time 14 day
[4] = 0 mg/kg, […], dose level Control, time 28 day
[5] = 1 mg/kg, 72 h, dose level Low, time 3 day
[6] = 1 mg/kg, […], dose level Low, time 7 day
[7] = 1 mg/kg, […], dose level Low, time 14 day
[8] = 1 mg/kg, […], dose level Low, time 28 day

COc1ccc2c(c1)c(CC(=O)O)c(C)n2C(=O)c1ccc(Cl)cc1 [INDOMETHACIN]
TERMINAL_BW [1]: 239.9 g | APTT [1]: 17 s | Bas [1]: 0% | Eos [1]: 0.8% | Fbg [1]: 211.8 mg/dL | Hb [1]: 13.4 g/dL | Ht [1]: 40.3% | Lym [1]: 81.4% | MCH [1]: 21.4 pg | MCHC [1]: 33.1% | MCV [1]: 64.6 fL | Mono [1]: 8% | Neu [1]: 10.2% | PT [1]: 11.2 s | Plat [1]: 122 x10_4/uL | RBC [1]: 625.2 x10_4/ul | Ret [1]: 7.6% | WBC [1]: 117.2 x10_2/uL | KIDNEY_L [1]: 1 g | KIDNEY_R [1]: 1.1 g | KIDNEY_TOTAL [1]: 2.1 g | LIVER [1]: 11.9 g | A/G [1]: 2.1 | ALP [1]: 1154.8 IU/L | ALT [1]: 33.2 IU/L | AST [1]: 60 IU/L | BUN [1]: 15.4 mg/dL | CRE [1]: 0.6 mg/dL | Ca [1]: 10.5 mg/dL | Cl [1]: 107 meq/L | DBIL [1]: 0.032 mg/dL | GLC [1]: 201.8 mg/dL | IP [1]: 7.4 mg/dL | K [1]: 4.8 meq/L | LDH [1]: 95.2 IU/L | Na [1]: 139.6 meq/L | PL [1]: 144.4 mg/dL | RALB [1]: 3.9 g/dL | TBIL [1]: 0.4 mg/dL | TC [1]: 74.2 mg/dL | TG [1]: 86.8 mg/dL | TP [1]: 5.7 g/dL | gamma-GTP [1]: 1 IU/L | TERMINAL_BW [2]: 269.3 g | TERMINAL_BW [3]: 339.4 g | TERMINAL_BW [4]: 433.9 g | APTT [2]: 16.5 s | Bas [2]: 0% | Eos [2]: 1% | Fbg [2]: 223.6 mg/dL | Hb [2]: 14.1 g/dL | Ht [2]: 42.4% | Lym [2]: 82% | MCH [2]: 20.9 pg | MCHC [2]: 33.3% | MCV [2]: 62.8 fL | Mono [2]: 6.8% | Neu [2]: 10% | PT [2]: 11.8 s | Plat [2]: 106.3 x10_4/uL | RBC [2]: 675 x10_4/ul | Ret [2]: 5.7% | WBC [2]: 126.2 x10_2/uL | APTT [3]: 16.7 s | Bas [3]: 0% | Eos [3]: 0.6% | Fbg [3]: 228.8 mg/dL | Hb [3]: 13.9 g/dL | Ht [3]: 41.7% | Lym [3]: 84.2% | MCH [3]: 20.1 pg | MCHC [3]: 33.4% | MCV [3]: 60.3 fL | Mono [3]: 5% | Neu [3]: 10.4% | PT [3]: 11.8 s | Plat [3]: 110.6 x10_4/uL | RBC [3]: 691.2 x10_4/ul | Ret [3]: 5.1% | WBC [3]: 148.4 x10_2/uL | APTT [4]: 15.3 s | Bas [4]: 0% | Eos [4]: 0.8% | Fbg [4]: 256.8 mg/dL | Hb [4]: 14.6 g/dL | Ht [4]: 44.4% | Lym [4]: 86.8% | MCH [4]: 18.5 pg | MCHC [4]: 32.9% | MCV [4]: 56.1 fL | Mono [4]: 4.4% | Neu [4]: 7.8% | PT [4]: 11.8 s | Plat [4]: 112.3 x10_4/uL | RBC [4]: 792.2 x10_4/ul | Ret [4]: 3.2% | WBC [4]: 153.4 x10_2/uL | KIDNEY_L [2]: 1.2 g | KIDNEY_R [2]: 1.2 g | KIDNEY_TOTAL [2]: 2.4 g | KIDNEY_L [3]: 1.3 g | KIDNEY_R [3]: 1.3 g | KIDNEY_TOTAL [3]: 2.6 g | KIDNEY_L [4]: 1.5 g | KIDNEY_R [4]: 1.5 g | KIDNEY_TOTAL [4]: 3 g | LIVER [2]: 13.2 g | LIVER [3]: 16 g | LIVER [4]: 19.6 g | A/G [2]: 2 | ALP [2]: 925.4 IU/L | ALT [2]: 33 IU/L | AST [2]: 63.2 IU/L | BUN [2]: 18.4 mg/dL | CRE [2]: 0.5 mg/dL | Ca [2]: 10.7 mg/dL | Cl [2]: 106.8 meq/L | DBIL [2]: 0.012 mg/dL | GLC [2]: 202.2 mg/dL | IP [2]: 8.3 mg/dL | K [2]: 5 meq/L | LDH [2]: 97.4 IU/L | Na [2]: 139 meq/L | PL [2]: 144.8 mg/dL | RALB [2]: 4 g/dL | TBIL [2]: 0.3 mg/dL | TC [2]: 69.2 mg/dL | TG [2]: 126.8 mg/dL | TP [2]: 6.1 g/dL | gamma-GTP [2]: 0.6 IU/L | A/G [3]: 1.8 | ALP [3]: 780.8 IU/L | ALT [3]: 30.6 IU/L | AST [3]: 60.6 IU/L | BUN [3]: 19.8 mg/dL | CRE [3]: 0.6 mg/dL | Ca [3]: 10.4 mg/dL | Cl [3]: 105.6 meq/L | DBIL [3]: 0.012 mg/dL | GLC [3]: 201.2 mg/dL | IP [3]: 8.5 mg/dL | K [3]: 4.8 meq/L | LDH [3]: 82.6 IU/L | Na [3]: 138.2 meq/L | PL [3]: 147.6 mg/dL | RALB [3]: 3.9 g/dL | TBIL [3]: 0.3 mg/dL | TC [3]: 72.4 mg/dL | TG [3]: 130.4 mg/dL | TP [3]: 6.2 g/dL | gamma-GTP [3]: 1.6 IU/L | A/G [4]: 1.9 | ALP [4]: 622.6 IU/L | ALT [4]: 27.6 IU/L | AST [4]: 56.2 IU/L | BUN [4]: 18.8 mg/dL | CRE [4]: 0.7 mg/dL | Ca [4]: 10.7 mg/dL | Cl [4]: 105.2 meq/L | DBIL [4]: 0.018 mg/dL | GLC [4]: 206.4 mg/dL | IP [4]: 7.5 mg/dL | K [4]: 4.1 meq/L | LDH [4]: 62.4 IU/L | Na [4]: 139.2 meq/L | PL [4]: 163.2 mg/dL | RALB [4]: 4.3 g/dL | TBIL [4]: 0.3 mg/dL | TC [4]: 79.6 mg/dL | TG [4]: 181.2 mg/dL | TP [4]: 6.6 g/dL | gamma-GTP [4]: 1.8 IU/L | TERMINAL_BW [5]: 239.1 g | APTT [5]: 16.8 s | Bas [5]: 0% | Eos [5]: 0.4% | Fbg [5]: 230.8 mg/dL | Hb [5]: 13.6 g/dL | Ht [5]: 40.7% | Lym [5]: 79% | MCH [5]: 21.7 pg | MCHC [5]: 33.5% | MCV [5]: 65 fL | Mono [5]: 7.6% | Neu [5]: 12.8% | PT [5]: 10.9 s | Plat [5]: 102.8 x10_4/uL | RBC [5]: 626.4 x10_4/ul | Ret [5]: 7% | WBC [5]: 89 x10_2/uL | KIDNEY_L [5]: 1.1 g | KIDNEY_R [5]: 1.1 g | KIDNEY_TOTAL [5]: 2.2 g | LIVER [5]: 11.8 g | A/G [5]: 1.9 | ALP [5]: 1210.2 IU/L | ALT [5]: 35.2 IU/L | AST [5]: 64.4 IU/L | BUN [5]: 16.8 mg/dL | CRE [5]: 0.6 mg/dL | Ca [5]: 10.6 mg/dL | Cl [5]: 105.8 meq/L | DBIL [5]: 0.032 mg/dL | GLC [5]: 196.6 mg/dL | IP [5]: 7.9 mg/dL | K [5]: 4.9 meq/L | LDH [5]: 91.4 IU/L | Na [5]: 138.8 meq/L | PL [5]: 165.2 mg/dL | RALB [5]: 3.9 g/dL | TBIL [5]: 0.3 mg/dL | TC [5]: 86 mg/dL | TG [5]: 108 mg/dL | TP [5]: 5.9 g/dL | gamma-GTP [5]: 1.2 IU/L | TERMINAL_BW [6]: 272.4 g | TERMINAL_BW [7]: 337.2 g | TERMINAL_BW [8]: 425.7 g | APTT [6]: 16.3 s | Bas [6]: 0% | Eos [6]: 0.6% | Fbg [6]: 240.2 mg/dL | Hb [6]: 13.8 g/dL | Ht [6]: 41.9% | Lym [6]: 82.8% | MCH [6]: 21.1 pg | MCHC [6]: 33.1% | MCV [6]: 63.9 fL | Mono [6]: 7.2% | Neu [6]: 9.2% | PT [6]: 11.7 s | Plat [6]: 121.9 x10_4/uL | RBC [6]: 656.8 x10_4/ul | Ret [6]: 7.2% | WBC [6]: 124.3 x10_2/uL | APTT [7]: 16.5 s | Bas [7]: 0% | Eos [7]: 0.8% | Fbg [7]: 232.4 mg/dL | Hb [7]: 14.4 g/dL | Ht [7]: 43.4% | Lym [7]: 85.4% | MCH [7]: 19.8 pg | MCHC [7]: 33.1% | MCV [7]: 59.8 fL | Mono [7]: 4.8% | Neu [7]: 9% | PT [7]: 11.6 s | Plat [7]: 119.2 x10_4/uL | RBC [7]: 726.6 x10_4/ul | Ret [7]: 4.3% | WBC [7]: 140.8 x10_2/uL | APTT [8]: 16.4 s | Bas [8]: 0% | Eos [8]: 0.8% | Fbg [8]: 249.8 mg/dL | Hb [8]: 15.2 g/dL | Ht [8]: 45.7% | Lym [8]: 83.6% | MCH [8]: 19.1 pg | MCHC [8]: 33.2% | MCV [8]: 57.5 fL | Mono [8]: 5.6% | Neu [8]: 10.6% | PT [8]: 11.8 s | Plat [8]: 113.7 x10_4/uL | RBC [8]: 795.8 x10_4/ul | Ret [8]: 2.7% | WBC [8]: 149.8 x10_2/uL | KIDNEY_L [6]: 1.1 g | KIDNEY_R [6]: 1.1 g | KIDNEY_TOTAL [6]: 2.3 g | KIDNEY_L [7]: 1.3 g | KIDNEY_R [7]: 1.3 g | KIDNEY_TOTAL [7]: 2.6 g | KIDNEY_L [8]: 1.4 g | KIDNEY_R [8]: 1.4 g | KIDNEY_TOTAL [8]: 2.8 g | LIVER [6]: 13.5 g | LIVER [7]: 16.3 g | LIVER [8]: 18.6 g | A/G [6]: 2.1 | ALP [6]: 892.6 IU/L | ALT [6]: 30.2 IU/L | AST [6]: 61.4 IU/L | BUN [6]: 20 mg/dL | CRE [6]: 0.5 mg/dL | Ca [6]: 11 mg/dL | Cl [6]: 105.6 meq/L | DBIL [6]: 0.006 mg/dL | GLC [6]: 193.2 mg/dL | IP [6]: 8.2 mg/dL | K [6]: 4.9 meq/L | LDH [6]: 89.2 IU/L | Na [6]: 139.4 meq/L | PL [6]: 156.6 mg/dL | RALB [6]: 4 g/dL | TBIL [6]: 0.4 mg/dL | TC [6]: 77.4 mg/dL | TG [6]: 149.6 mg/dL | TP [6]: 6 g/dL | gamma-GTP [6]: 1.4 IU/L
